Test results taken from PubChem BioAssay AID1963962 (Molecular Pharmacology Branch, DTP, NCI, 2024).

System: 967376-340-R-J2-PDC multicell spheroid viability
Assay: Anticancer human tumor 967376-340-R-J2-PDC patient-derived colon adenocarcinoma cell line growth inhibition [PI3K]
Settings: for IC50: curve of first compound; for viability, T/C: stronger effect = lower value; active means viability on the fitted dose curve at most 10% of control; inactive means the rest
Summary of the method: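 We assembled tumor spheroids that included a stromal compartment of HUVEC and MSCs, then exposed them to targeted agents alone and together with PI3K pathway inhibitors. Concentration series descended by half-log from clinically achievable Cmax levels. Viability served as the endpoint.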

[1] = second compound 0.0316 µM, first compound 0.0316 µM
[2] = second compound 0.0316 µM, first compound 0.1 µM
[3] = second compound 0.0316 µM, first compound 0.316 µM
[4] = second compound 0.0316 µM, first compound 1 µM
[5] = second compound 0.1 µM, first compound 0.0316 µM
[6] = second compound 0.1 µM, first compound 0.1 µM
[7] = second compound 0.1 µM, first compound 0.316 µM
[8] = second compound 0.1 µM, first compound 1 µM
[9] = second compound 0.316 µM, first compound 0.0316 µM
[10] = second compound 0.316 µM, first compound 0.1 µM
[11] = second compound 0.316 µM, first compound 0.316 µM
[12] = second compound 0.316 µM, first compound 1 µM
[13] = second compound 1 µM, first compound 0.0316 µM
[14] = second compound 1 µM, first compound 0.1 µM
[15] = second compound 1 µM, first compound 0.316 µM
[16] = second compound 1 µM, first compound 1 µM
[17] = second compound 3.16 µM, first compound 0.0316 µM
[18] = second compound 3.16 µM, first compound 0.1 µM
[19] = second compound 3.16 µM, first compound 0.316 µM
[20] = second compound 3.16 µM, first compound 1 µM
[21] = second compound 10 µM, first compound 0.0316 µM
[22] = second compound 10 µM, first compound 0.1 µM
[23] = second compound 10 µM, first compound 0.316 µM
[24] = second compound 10 µM, first compound 1 µM
[25] = second compound 0.0316 µM, first compound 3.16 µM
[26] = second compound 0.0316 µM, first compound 10 µM
[27] = second compound 0.1 µM, first compound 3.16 µM
[28] = second compound 0.1 µM, first compound 10 µM
[29] = second compound 0.316 µM, first compound 3.16 µM
[30] = second compound 0.316 µM, first compound 10 µM
[31] = second compound 1 µM, first compound 3.16 µM
[32] = second compound 1 µM, first compound 10 µM
[33] = second compound 3.16 µM, first compound 3.16 µM
[34] = second compound 3.16 µM, first compound 10 µM
[35] = second compound 10 µM, first compound 3.16 µM
[36] = second compound 10 µM, first compound 10 µM
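Further: spheroids exposed to agents for 7 days before read-out.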
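Wherever viability, T/C is given: luminescence used as surrogate of cell viability.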

CCN1CCN(Cc2ccc(Nc3ncc(F)c(-c4cc(F)c5nc(C)n(C(C)C)c5c4)n3)nc2)CC1 + CC(Nc1ncnc2nc[nH]c12)c1cc2cccc(Cl)c2c(=O)n1-c1ccccc1
> 1 µM: IC50 (second compound 0.0316 µM) | IC50 (second compound 0.1 µM) | IC50 (second compound 0.316 µM) | IC50 (second compound 1 µM) | IC50 (second compound 3.16 µM) | IC50 (second compound 10 µM)
inactive: viability, T/C (second compound 0.0316 µM, first compound 0.00316 µM) 93.1% | viability, T/C (second compound 0.0316 µM, first compound 0.01 µM) 95.1% | viability, T/C [1] 91.3% | viability, T/C [2] 73.8% | viability, T/C [3] 88.5% | viability, T/C [4] 70.1% | viability, T/C (second compound 0.1 µM, first compound 0.00316 µM) 103% | viability, T/C (second compound 0.1 µM, first compound 0.01 µM) 106% | viability, T/C [5] 74.9% | viability, T/C [6] 87.9% | viability, T/C [7] 74.4% | viability, T/C [8] 86.8% | viability, T/C (second compound 0.316 µM, first compound 0.00316 µM) 113% | viability, T/C (second compound 0.316 µM, first compound 0.01 µM) 95.7% | viability, T/C [9] 100% | viability, T/C [10] 83.9% | viability, T/C [11] 79.5% | viability, T/C [12] 65.1% | viability, T/C (second compound 1 µM, first compound 0.00316 µM) 111% | viability, T/C (second compound 1 µM, first compound 0.01 µM) 87% | viability, T/C [13] 86.8% | viability, T/C [14] 80% | viability, T/C [15] 78.6% | viability, T/C [16] 58.6% | viability, T/C (second compound 3.16 µM, first compound 0.00316 µM) 95.7% | viability, T/C (second compound 3.16 µM, first compound 0.01 µM) 77.7% | viability, T/C [17] 94.5% | viability, T/C [18] 72.6% | viability, T/C [19] 75.9% | viability, T/C [20] 60% | viability, T/C (second compound 10 µM, first compound 0.00316 µM) 92% | viability, T/C (second compound 10 µM, first compound 0.01 µM) 85.9% | viability, T/C [21] 72% | viability, T/C [22] 62% | viability, T/C [23] 67.3% | viability, T/C [24] 48.6%

Cn1ncc(Cl)c1-c1cc(C(=O)NC(CN)Cc2cccc(F)c2)sc1Cl (stereo unspecified) + CC(Nc1ncnc2nc[nH]c12)c1cc2cccc(Cl)c2c(=O)n1-c1ccccc1
6.67 µM: IC50 (second compound 10 µM)
inactive: viability, T/C [1] 99% | viability, T/C [2] 95% | viability, T/C [3] 93.6% | viability, T/C [4] 91.1% | viability, T/C [25] 66.9% | viability, T/C [26] 62.5% | viability, T/C [5] 122% | viability, T/C [6] 97.3% | viability, T/C [7] 104% | viability, T/C [8] 86.7% | viability, T/C [27] 84.8% | viability, T/C [28] 71.1% | viability, T/C [9] 87.2% | viability, T/C [10] 97.7% | viability, T/C [11] 86.9% | viability, T/C [12] 81.4% | viability, T/C [29] 78.3% | viability, T/C [30] 64.6% | viability, T/C [13] 85.3% | viability, T/C [14] 104% | viability, T/C [15] 101% | viability, T/C [16] 86.4% | viability, T/C [31] 79.1% | viability, T/C [32] 48.8% | viability, T/C [17] 101% | viability, T/C [18] 93.7% | viability, T/C [19] 104% | viability, T/C [20] 73.5% | viability, T/C [33] 73.2% | viability, T/C [34] 53.6% | viability, T/C [21] 79.4% | viability, T/C [22] 88.5% | viability, T/C [23] 96.7% | viability, T/C [24] 86.3% | viability, T/C [35] 60.3% | viability, T/C [36] 44.4%
9.58 µM: IC50 (second compound 1 µM)
> 10 µM: IC50 (second compound 0.0316 µM) | IC50 (second compound 0.1 µM) | IC50 (second compound 0.316 µM) | IC50 (second compound 3.16 µM)

Cn1nccc1Nc1nccc(-c2ccn(C(CO)c3ccc(Cl)c(F)c3)c(=O)c2)n1 (stereo unspecified) + CC(Nc1ncnc2nc[nH]c12)c1cc2cccc(Cl)c2c(=O)n1-c1ccccc1
inactive: viability, T/C [1] 97.2% | viability, T/C [2] 115% | viability, T/C [3] 101% | viability, T/C [4] 102% | viability, T/C [25] 101% | viability, T/C [26] 114% | viability, T/C [5] 103% | viability, T/C [6] 105% | viability, T/C [7] 95.9% | viability, T/C [8] 128% | viability, T/C [27] 128% | viability, T/C [28] 106% | viability, T/C [9] 107% | viability, T/C [10] 115% | viability, T/C [11] 114% | viability, T/C [12] 76.1% | viability, T/C [29] 104% | viability, T/C [30] 110% | viability, T/C [13] 96.2% | viability, T/C [14] 93.3% | viability, T/C [15] 87.8% | viability, T/C [16] 89% | viability, T/C [31] 99% | viability, T/C [32] 96.3% | viability, T/C [17] 87.5% | viability, T/C [18] 85.3% | viability, T/C [19] 80.1% | viability, T/C [20] 89.3% | viability, T/C [33] 99.7% | viability, T/C [34] 81.4% | viability, T/C [21] 95.7% | viability, T/C [22] 73.4% | viability, T/C [23] 86.3% | viability, T/C [24] 86.7% | viability, T/C [35] 76.2% | viability, T/C [36] 75.3%
> 10 µM: IC50 (second compound 0.0316 µM) | IC50 (second compound 0.1 µM) | IC50 (second compound 0.316 µM) | IC50 (second compound 1 µM) | IC50 (second compound 3.16 µM) | IC50 (second compound 10 µM)
